Test [1] deals with TNF-α. Put plainly: Screening of TNF-α level in PMA-differentiated THP-1 cell line after LPS. The class given is cell-based, human. Conditions: 1 µM peptide, one hour; LPS 10 ng/ml. Here is the method: Experiment was carried out using THP-1 cell line (American Type Culture Collection (ATCC), Manassas, VA, USA) which is human acute monocytic leukemia.
THP-1 cells were incubated to reach the number of 1 × 10^5 cells per well in a 96-well plate with RPMI 1640 medium for 24 hrs, followed by addition of 100 uM of PMA (phorbol 12-myristate 13-acetate) for the differentiation into macrophage. After differentiation of THP-1 into macrophage by PMA for a day, LPS was treated for 2 hrs and washed off. Starvation for an hour and PEP1 treatment followed.
THP-1 cell differentiated by PMA was treated with LPS (lipopolysaccharide; 10 ng/ml, Sigma) for 2 hours, followed by 2 times washes with PBS. To the cells, OPTI-MEM culture medium was added to induce cell starvation for an hour, and 1 µM of 179 peptides was taken out and incubated for an hour. After incubation, TNF-α level was measured by using the ELISA kit and the peptides which reduce the TNF-α level were screened (FIG. 24 to FIG. 46).

The subject of test [2] is TNF-α. Put plainly: Screening of TNF-α inhibitory effect, LPS-stimulated PBMC-derived monocytes (Example 2). Type of test: cell-based, human. The following applies: 4 uM peptide, 2 hrs, LPS 10 ng/ml; for TNF-α inhibiting effect compared to the group treated with LPS and estrogen: estrogen 20 nM. Here is the method: PBMC (peripheral blood mononuclear cells) layer was separated from blood samples (50 ml) collected in healthy subjects using Biocoll Separating Solution (Biochrom AG, Berlin, Germany). The collected PBMC were enriched in RPMI 1640 medium containing 20% human serum for 30 mins, and then transferred to 100-mm polystyeren cell culture plate coated with human serum for incubation for 2 hrs at 37° C., 5% CO^2 incubator. Monocytes were detached from the bottom of the plate using cold PBS, and incubated to reach the number of 1 × 10^5 cell/well in 96-well plate with RPMI 1640 medium (supplemented with penicillinstreptomycin; […], human serum; 20%) over night.
ELISA was performed to find out how the peptides of the PEP RIA series influence TNF-α level. PBMC-derived monocytes were incubated to reach the number of 1 × 10^5 cells per well in a 96-well plate and then treated with LPS (lipopolysaccharide; 10 ng/ml, Sigma) for 2 hours. To the monocytes that were washed three times with PBS, OPTI-MEM culture medium was added to induce cell starvation for an hour, 4 µM of the peptide was taken out and incubated for 2 hours. There were three negative control groups. The first group was not treated with anything. The second group that was treated with estrogen (in this experiment, estradiol was used as a kind of estrogen). The third group was treated with LPS (10 ng/ml) or with LPS (10 ng/ml) as well as estrogen (20 nM). PEP1 that was confirmed to have TNF-α inhibiting activity was used as a positive control to measure TNF-α inhibiting activity. After incubation, TNF-α was measured by following the ELISA kit manual (R&D, Minneapolis, MN, USA). The details of quantification method can be found in Experiment 2.2 of Example 1.
Using the method stated above, Peptides with TNF-α inhibiting effect were screened. PBMC-derived monocytes were stimulated with LPS (10 ng/ml), which is endotoxin, for 2 hours and were induced to starve by adding OPTI-MEM for 1 hour. After that, 4 uM of 179 peptides were treated and incubated for 2 hrs. The amount of TNF-α in the cell culture medium was measured using ELISA, and the peptides with TNF-α inhibiting effect were screened by comparing to the negative and positive controls (FIG. 3 to FIG. 23).

This note sets out measurements from patent US20230293644A1, “ANTI-INFLAMMATORY PEPTIDES AND COMPOSITION COMPRISING THE SAME” (Gemvax & KAEL Co., Ltd., priority 2012, published 2023).

Regarding “HREARPALLTSRLRFIPKPDGL (listed as Homo sapiens) [SEQ ID NO: 30]”, the “expression level of TNF-α compared to group treated with LPS and estrogen” value in the test on TNF-α [1] is on record as “reduce the expression level of TNF-α”.
Consider “ARPALLTSRL (listed as Homo sapiens) [SEQ ID NO: 113]”, for which the “expression level of TNF-α compared to group treated with LPS and estrogen” value in the test with TNF-α [1] was “reduce the expression level of TNF-α”. For the same substance, the “TNF-α inhibiting effect compared to the control group treated with only LPS” value in the test on TNF-α [2] was “showed TNF-α inhibiting effect”.
In the case of “RQHREARPALLTSRLRFIPK (listed as Homo sapiens) [SEQ ID NO: 5]”, in the test with TNF-α [1], the “TNF-α level compared to control group treated only with LPS” value is listed as “reduce the TNF- α level”.
Regarding “EVRQHREARPALLTSRLRFIPKP (listed as Homo sapiens) [SEQ ID NO: 41]”, the “expression level of TNF-α compared to group treated with LPS and estrogen” value in the test with TNF-α [1] is given as “reduce the expression level of TNF-α”.
Take FIP [SEQ ID NO: 179]: the “TNF-α level compared to control group treated only with LPS” value in the test with TNF-α [1] is reported as “reduce the TNF- α level”.
In the case of “REARPALLTSRLRFIPK (listed as Homo sapiens) [SEQ ID NO: 2]”, the “expression level of TNF-α compared to group treated with LPS and estrogen” value in the test on TNF-α [1] is “reduce the expression level of TNF-α”.
Take “VRQHREARPALLTSRLRFIPKPDGLR (listed as Homo sapiens) [SEQ ID NO: 36]”: in the test with TNF-α [1], the “TNF-α level compared to control group treated only with LPS” value is “reduce the TNF- α level”. Besides, the “TNF-α inhibiting effect compared to the control group treated with only LPS” value with TNF-α [2] is “showed TNF-α inhibiting effect”.
For the substance “EARPALLTSRLRFIP (listed as Homo sapiens) [SEQ ID NO: 78]”, the “TNF-α level compared to control group treated only with LPS” value in the test on TNF-α [1] is on record as “reduce the TNF- α level”.
With “ALLTSRLR (listed as Homo sapiens) [SEQ ID NO: 107]”, the “TNF-α level compared to control group treated only with LPS” value in the test with TNF-α [1] is listed as “reduce the TNF- α level”.
On to “ARPALLTSRLR (listed as Homo sapiens) [SEQ ID NO: 112]”, for which the “expression level of TNF-α compared to group treated with LPS and estrogen” value in the test on TNF-α [1] is listed as “reduce the expression level of TNF-α”. In addition, the “TNF-α inhibiting effect compared to the control group treated with only LPS” value in the test on TNF-α [2] is listed as “showed TNF-α inhibiting effect”.
Take “QHREARPALLTSRLRFIPKPDGLR (listed as Homo sapiens) [SEQ ID NO: 38]”: in the test on TNF-α [1], the “TNF-α level compared to control group treated only with LPS” value is “reduce the TNF- α level”. Further, in the test with TNF-α [2], the “TNF-α inhibiting effect compared to the control group treated with only LPS” value is recorded as “showed TNF-α inhibiting effect”.
With “EARPALLTSRLRFIPKPDGLRPIVNM (listed as Homo sapiens) [SEQ ID NO: 73]”, in the test with TNF-α [1], the “TNF-α level compared to control group treated only with LPS” value is “reduce the TNF- α level”. Besides, in the test with TNF-α [2], the “TNF-α inhibiting effect compared to the control group treated with only LPS” value is reported as “showed TNF-α inhibiting effect”; the “TNF-α inhibiting effect compared to the group treated with LPS and estrogen” value was “showed TNF-α inhibiting effect”.
In the case of “EVRQHREARPALLTSRLRFIPK (listed as Homo sapiens) [SEQ ID NO: 7]”, in the test on TNF-α [1], the “TNF-α level compared to control group treated only with LPS” value is recorded as “reduce the TNF- α level”.
“HREARPALLTSRLRFIPK (listed as Homo sapiens) [SEQ ID NO: 3]”: the “expression level of TNF-α compared to group treated with LPS and estrogen” value with TNF-α [1] is “reduce the expression level of TNF-α”.
On to “EARPALLTSRLRFIPKPDGLRPIVNMDY (listed as Homo sapiens) [SEQ ID NO: 75]”, for which the “TNF-α level compared to control group treated only with LPS” value with TNF-α [1] is reported as “reduce the TNF- α level”.
Regarding “RQHREARPALLTSRLRFIPKPDG (listed as Homo sapiens) [SEQ ID NO: 27]”, in the test with TNF-α [2], the “TNF-α inhibiting effect compared to the control group treated with only LPS” value is on record as “showed TNF-α inhibiting effect”; the “TNF-α inhibiting effect compared to the group treated with LPS and estrogen” value is given as “showed TNF-α inhibiting effect”.
For “TSRLRFIP (listed as Homo sapiens) [SEQ ID NO: 159]”, the “TNF-α inhibiting effect compared to the control group treated with only LPS” value in the test with TNF-α [2] was “showed TNF-α inhibiting effect”.
For “EVRQHREARPALLTSRLRFIPKPD (listed as Homo sapiens) [SEQ ID NO: 42]”, in the test with TNF-α [2], the “TNF-α inhibiting effect compared to the control group treated with only LPS” value is “showed TNF-α inhibiting effect”; the “TNF-α inhibiting effect compared to the group treated with LPS and estrogen” value is “showed TNF-α inhibiting effect”.
In the case of “LRFIPK (listed as Homo sapiens) [SEQ ID NO: 100]”, in the test on TNF-α [2], the “TNF-α inhibiting effect compared to the control group treated with only LPS” value is “showed TNF-α inhibiting effect”; the “TNF-α inhibiting effect compared to the group treated with LPS and estrogen” value was “showed TNF-α inhibiting effect”.
As to IPK [SEQ ID NO: 103], in the test with TNF-α [2], the “TNF-α inhibiting effect compared to the control group treated with only LPS” value is recorded as “showed TNF-α inhibiting effect”; the “TNF-α inhibiting effect compared to the group treated with LPS and estrogen” value was “showed TNF-α inhibiting effect”.
Regarding “AEVRQHREARPALLTSRLRFIPKPDGLRP (listed as Homo sapiens) [SEQ ID NO: 57]”, the “TNF-α inhibiting effect compared to the control group treated with only LPS” value with TNF-α [2] was “showed TNF-α inhibiting effect”.
For “LTSR (listed as Homo sapiens) [SEQ ID NO: 109]”, the “TNF-α level compared to control group treated only with LPS” value with TNF-α [1] was “reduce the TNF- α level”. Moreover, in the test with TNF-α [2], the “TNF-α inhibiting effect compared to the control group treated with only LPS” value is listed as “showed TNF-α inhibiting effect”; the “TNF-α inhibiting effect compared to the group treated with LPS and estrogen” value was “showed TNF-α inhibiting effect”.
As for “EARPA (listed as Homo sapiens) [SEQ ID NO: 88]”, in the test on TNF-α [2], the “TNF-α inhibiting effect compared to the control group treated with only LPS” value is “showed TNF-α inhibiting effect”; the “TNF-α inhibiting effect compared to the group treated with LPS and estrogen” value is recorded as “showed TNF-α inhibiting effect”.
“RPALLTSR (listed as Homo sapiens) [SEQ ID NO: 124]”: in the test on TNF-α [2], the “TNF-α inhibiting effect compared to the control group treated with only LPS” value is “showed TNF-α inhibiting effect”.
On the same count and under the same terms, to LTS [SEQ ID NO: 158] belongs “showed TNF-α inhibiting effect”.
Consider “SEAEVRQHREARPALLTSRLRFIPK (listed as Homo sapiens) [SEQ ID NO: 10]”, for which, in the test with TNF-α [2], the “TNF-α inhibiting effect compared to the control group treated with only LPS” value is listed as “showed TNF-α inhibiting effect”; the “TNF-α inhibiting effect compared to the group treated with LPS and estrogen” value was “showed TNF-α inhibiting effect”.
Turning to “QHREARPALLTSRLRFIPKP (listed as Homo sapiens) [SEQ ID NO: 20]”, in the test with TNF-α [2], the “TNF-α inhibiting effect compared to the control group treated with only LPS” value was “showed TNF-α inhibiting effect”; the “TNF-α inhibiting effect compared to the group treated with LPS and estrogen” value is listed as “showed TNF-α inhibiting effect”.
Turning to “QHREARPALLTSRLRFIPKPD (listed as Homo sapiens) [SEQ ID NO: 21]”, in the test with TNF-α [2], the “TNF-α inhibiting effect compared to the control group treated with only LPS” value is “showed TNF-α inhibiting effect”.
“FIPK (listed as Homo sapiens) [SEQ ID NO: 102]”: in the test on TNF-α [2], the “TNF-α inhibiting effect compared to the control group treated with only LPS” value is listed as “showed TNF-α inhibiting effect”; the “TNF-α inhibiting effect compared to the group treated with LPS and estrogen” value was “showed TNF-α inhibiting effect”.
